The values that follow come from patent US20040009569A1, “Kinase crystal structures and materials and methods for kinase activation” (priority 2001, published 2004).

As usually defined, the pEC50 is the negative decadic logarithm of the EC50, by convention in mol/L.

One test has as its target T1, pΔPH-PKB-ΔC (Homo sapiens, UniProt P31751).
T1 construct: pΔPH-PKB-ΔC (residues 146 to 460, phosphorylated in vitro on Thr-309); 6xHis (N, cleaved yes); made in house; host or cells: Sf9 insect cells / baculovirus (pFastBacHTa)
In words: Isothermal titration calorimetry, peptide binding to pΔPH-PKB-ΔC. Conditions: ITC; read-out: equilibrium dissociation constant. The protocol: (§1) (C) Isothermal titration calorimetry measurements of the binding of PIFtide to pΔPH-PKB-ΔC (left) and ΔPH-PKB-ΔC (right). Upper panel, raw data of the titration of PIFtide into pΔPH-PKB-ΔC. Lower panel, integrated heats of injections, corrected for the heat of dilution, with the solid line corresponding to the best fit of the data using the MicroCal software.
(§2) Using isothermal titration calorimetry, the affinity between PIFtide and both pΔPH-PKB-ΔC and ΔPH-PKB-ΔC was determined (FIG. 5C). […] The observed large decrease in entropy is […] typical of protein-peptide interactions, for example SH2-domain-phosphotyrosine peptide complexes (Ladbury et al., 1996), and is consistent with an ordering of both the protein, presumably the αB- and αC-helices of the N-lobe, and peptide on complex formation.
Background: ITC needs no label: the signal is the heat of the interaction.

In test [1] the target is T2, His tagged pΔPH-PKB-ΔC L225A mutant (Homo sapiens, UniProt P31751, L225A).
T2 construct: pΔPH-PKB-ΔC (residues 146 to 460, phosphorylated in vitro on Thr-309); made in house; host or cells: HEK cells (transient expression), purified on Ni-NTA agarose
T2 sequence (P31751 146-460 L225A): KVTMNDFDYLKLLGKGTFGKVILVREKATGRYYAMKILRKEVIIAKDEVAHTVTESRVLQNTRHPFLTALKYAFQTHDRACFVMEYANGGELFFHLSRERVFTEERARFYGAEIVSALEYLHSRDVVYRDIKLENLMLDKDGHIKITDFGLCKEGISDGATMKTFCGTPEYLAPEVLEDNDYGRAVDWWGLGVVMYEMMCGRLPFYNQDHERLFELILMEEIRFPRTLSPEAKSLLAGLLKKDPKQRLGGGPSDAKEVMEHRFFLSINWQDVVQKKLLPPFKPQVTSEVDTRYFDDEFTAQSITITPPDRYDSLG
In words: PIFtide responsiveness of hydrophobic groove mutant Leu 225. It counts as biochemical. The settings on record: 130 μM PIFtide. The protocol: (§3) Mutations of conserved hydrophobic motif residues of PIFtide and PKB HM-peptide reduce or eliminate their potential to activate ΔPH-PKB-ΔC phosphorylated on Thr 309. Mutations of hydrophobic and electrostatic residues of the ΔPH-PKB-ΔC N-lobe hydrophobic groove reduces the stimulation of PKB activity by 130 μM PIFtide.
(§4) To test the notion that a hydrophobic groove is induced in PKB to engage the hydrophobic motif, and activate the kinase, a series of His tagged pΔPH-PKB-ΔC hydrophobic groove mutants were prepared and their responsiveness to PIFtide assessed. PKB mutants were transiently expressed in HEK cells, phosphorylated in vitro with PDK1, and purified using Ni-NTA agarose. […] Wild type PKB prepared using this procedure was stimulated ˜5-fold by 130 μM PIFtide (FIG. 6B).
(§5) PKB was assayed essentially as described by Andjelkovic et al. (1999) with 30 μM Crosstide (GRPRTSSAEG) as substrate except the protein kinase A inhibitor peptide was not added to the reactions. For peptide stimulation experiments the various peptides were dissolved in water and added to the kinase assay mix prior to adding the PKB protein. Peptides were synthesized by Franz Fischer at the FMI or purchased from Neosystem, Strasburg, France.

For test [2], the target named is T3, pΔPH-PKB-ΔC (PKBβ residues 146 to 460, phosphorylated in vitro on Thr-309) (Homo sapiens, UniProt P31751).
T3 construct: pΔPH-PKB-ΔC (residues 146 to 460, phosphorylated in vitro on Thr-309); 6xHis (N, cleaved yes); made in house; host or cells: Sf9 insect cells / baculovirus (pFastBacHTa)
T3 sequence (P31751 146-460, stated change not applied): as the sequence (P31751 146-460 L225A) above, with A80L counted along it
The test can be described thus: Protein kinase B assay with Crosstide as substrate, peptide stimulation of pΔPH-PKB-ΔC. It counts as biochemical. Conditions: Crosstide substrate. How it is done:
To test the model that Ser 474 phosphorylation promotes an interaction between the hydrophobic motif and the induced hydrophobic groove of the N-terminal lobe, thereby causing an allosteric activation of the kinase, the ability of peptides modelled on the hydrophobic motif of PKB to activate the enzyme via an intermolecular association with the N-terminal lobe was assessed.
as §5
All experiments were performed in either duplicate or triplicate.

Test [3] concerns the target T4, His tagged pΔPH-PKB-ΔC R202D mutant (Homo sapiens, UniProt P31751, R202D).
T4 construct: pΔPH-PKB-ΔC (residues 146 to 460, phosphorylated in vitro on Thr-309); made in house; host or cells: HEK cells (transient expression), purified on Ni-NTA agarose
In words: PIFtide responsiveness of charge reversal mutant R202D. In kind it is biochemical. How it is done:
as §3, §4
Electrostatic interactions are important in defining high affinity PIFtide and PKB HM peptide associations with PKB (FIG. 5B), and form the basis for the increased affinity of the HM for the N-lobe and subsequent activation of PKB by Ser 474 phosphorylation. […] The equivalent residue of PKA, Arg 93, which is also conserved in PKC and PRK2, forms a water-mediated salt bridge to the carboxylate group of Glu 349 (FIG. 2).
PKB was assayed essentially as described by Andjelkovic et al. (1999) with 30 μM Crosstide (GRPRTSSAEG) as substrate except the protein kinase A inhibitor peptide was not added to the reactions. […]

Test [4] has as its target T5, PDK1 (Homo sapiens, UniProt O15530).
T5 sequence (O15530 1-556): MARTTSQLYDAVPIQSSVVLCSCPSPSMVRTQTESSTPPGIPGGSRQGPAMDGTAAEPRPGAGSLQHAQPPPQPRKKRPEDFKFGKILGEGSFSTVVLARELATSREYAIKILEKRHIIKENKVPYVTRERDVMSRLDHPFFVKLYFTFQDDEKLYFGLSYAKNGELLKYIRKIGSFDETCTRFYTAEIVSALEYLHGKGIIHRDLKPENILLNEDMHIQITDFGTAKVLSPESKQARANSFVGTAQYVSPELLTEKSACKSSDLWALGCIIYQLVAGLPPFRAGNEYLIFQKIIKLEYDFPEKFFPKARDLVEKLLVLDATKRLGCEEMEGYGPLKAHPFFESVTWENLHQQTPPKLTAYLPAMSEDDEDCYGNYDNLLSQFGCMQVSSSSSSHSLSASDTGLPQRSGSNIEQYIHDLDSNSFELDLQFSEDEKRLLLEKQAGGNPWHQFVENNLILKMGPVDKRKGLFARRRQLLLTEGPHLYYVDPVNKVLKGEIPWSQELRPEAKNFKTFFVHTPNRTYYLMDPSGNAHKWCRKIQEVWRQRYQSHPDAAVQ
Conditions: cited from earlier work.

The target in test [5] is T5, PDK1. Conditions: cited from earlier work. This is another data set of the same source.
The target of a further test is T6, ΔPH-PKB-ΔC (Homo sapiens, UniProt P31751).
T6 construct: ΔPH-PKB-ΔC(residues 146 to 460, not phosphorylated on Thr-309); 6xHis (N, cleaved yes); made in house; host or cells: Sf9 insect cells / baculovirus (pFastBacHTa)
T6 sequence (P31751 146-460, stated change not applied): as the sequence (P31751 146-460 L225A) above, with A80L counted along it
The test can be described thus: Isothermal titration calorimetry, peptide binding to ΔPH-PKB-ΔC. How it is done: as §1, §2

pEC50, pKd: −log10 of the molar value. Peptide text beside a SMILES is read from it.

T4 sequence (P31751 146-460 R202D): as the sequence (P31751 146-460 L225A) above, with R57D, A80L counted along it
T1 sequence (P31751 146-460, stated change not applied): as the sequence (P31751 146-460 L225A) above, with A80L counted along it

`CC[C@H](C)[C@H](NC(=O)[C@H](Cc1ccc(O)cc1)NC(=O)[C@H](CC(=O)O)NC(=O)[C@H](Cc1ccccc1)NC(=O)[C@H](CC(=O)O)NC(=O)[C@H](CCCNC(=N)N)NC(=O)[C@H](Cc1ccccc1)NC(=O)[C@H](CCSC)NC(=O)[C@H](CCC(=O)O)NC(=O)[C@H](CCC(N)=O)NC(=O)[C@H](CCC(=O)O)NC(=O)[C@H](CCC(=O)O)NC(=O)[C@H](CCC(=O)O)NC(=O)[C@H](CO)NC(=O)[C@H](CC(C)C)NC(=O)[C@@H](NC(=O)[C@H](CCCNC(=N)N)NC(=O)[C@@H]1CCCN1C(=O)[C@H](CCC(=O)O)NC(=O)[C@@H](N)CCCNC(=N)N)[C@@H](C)CC)C(=O)N[C@@H](C)C(=O)N[C@@H](CC(=O)O)C(=O)N[C@@H](Cc1c[nH]c2ccccc12)C(=O)O` [PIFtide] (H-REPRILSEEEQEMFRDFDYIADW-OH; N-terminus and C-terminus assumed): the pKd on pΔPH-PKB-ΔC was 5.22. Also, in test [1], the “responsiveness to PIFtide (in words)” value is recorded as “almost a complete loss of responsiveness”. In addition, in test [2], the “concentration of maximum and saturable activation” value is 20 µM; the “specific activity of pΔPH-PKB-ΔC maximally activated by PIFtide” value was 350 nmol/min/mg. The pEC50 in test [2] (value of PIFtide(D->A) called estimated, read-out: EC50 for activation of pΔPH-PKB-ΔC) was 5.52. In addition, the “ability of PIFtide to activate R202D PKB (in words)” value in test [3] (130 μM PIFtide) is “almost eliminates”. In addition, the “responsiveness of R202D PKB (in words)” value in test [3] (higher concentrations of the peptide) was “more responsive”. In addition, on PDK1 [4], the “stimulation of PDK1 activity” value is “four-fold”. For the same molecule, the “effect on thermal stability of PDK1 (in words)” value at PDK1 [5] was “greatly increases”. For the same molecule, the “binding to ΔPH-PKB-ΔC (in words)” value at ΔPH-PKB-ΔC is “can bind”. Moreover, on ΔPH-PKB-ΔC (ITC), the “enthalpy change ΔH” value was -66.9 kJ/mol and the “entropy term TΔS” value was -38.5 kJ/mol. Moreover, the pKd on ΔPH-PKB-ΔC (ITC, read-out: dissociation constant) was 5.26.
